Patent US8450308B2 (Vitae Pharmaceuticals, Inc., priority 2008, dated 2013)
Read-outs that look alike come from different tables or passages of the source.

How the values were obtained:
[1] = BACE cell assay: soluble Amyloid Beta 1-40 (Aβ 1-40) in culture media of H4-APPsw cells; format: cell-based
[2] = biological target: T1, truncated human beta-secretase (residues 1-458, His6-tagged at the C-terminus) (Homo sapiens, UniProt P56817); test: BACE fluorescence quench assay; format: biochemical; details: in vitro enzyme activity, BACE fluorescence assay, pH 4.5; read-out: IC50
T1 construct: truncated human beta-secretase (residues 1-458, His6-tagged at the C-terminus); His6 (C); made in house; host or cells: insect cells D. melanogaster S2 (baculovirus expression system (so in the source))

[3] = in vitro cell activity, H4-APPsw cells, secreted Aβ 1-40, overnight treatment, read-out: IC50

T1 sequence (P56817 22-458): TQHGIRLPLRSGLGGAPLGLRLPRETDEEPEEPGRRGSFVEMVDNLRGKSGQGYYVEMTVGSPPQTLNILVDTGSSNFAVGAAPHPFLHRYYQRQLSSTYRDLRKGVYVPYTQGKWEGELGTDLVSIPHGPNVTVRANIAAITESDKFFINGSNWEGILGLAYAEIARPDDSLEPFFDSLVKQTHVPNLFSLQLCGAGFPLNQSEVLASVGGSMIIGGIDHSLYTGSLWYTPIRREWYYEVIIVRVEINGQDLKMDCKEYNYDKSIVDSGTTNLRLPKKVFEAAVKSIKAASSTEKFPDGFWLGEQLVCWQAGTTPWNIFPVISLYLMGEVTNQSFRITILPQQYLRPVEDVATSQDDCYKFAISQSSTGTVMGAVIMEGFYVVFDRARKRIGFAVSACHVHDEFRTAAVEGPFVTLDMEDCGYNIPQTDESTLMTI

| SMILES | IC50 [1, 3] [nM] | IC50 [2] [nM] | IC50 [1] [nM] |
| --- | --- | --- | --- |
| COc1cc(OC)cc(-c2ccc3c(c2)[C@]2(C[C@@]4(CCCOC4)O3)N=C(N)N(C)C2=O)c1 [Compound 333] | 1000 to 5000 | 100 to 500 |  |
| CN1C(=O)C2(C[C@@H](C3CCCc4ccccc43)Oc3ccc(-c4cccc(C#N)c4)cc32)N=C1N (stereo in doubt) [Compound 282, 3-(2′-amino-1′-methyl-5′-oxo-2-(1,2,3,4-tetrahydronaphthalen-1-yl)-1′,5′-dihydrospiro[chroman-4,4′-imidazole]-6-yl)benzonitrile] | 1000 to 5000 | 100 to 500 |  |
| CN1O[C@@]2(C[C@@H](C3CCOc4ccccc43)Oc3ccc(-c4cccc(C#N)c4)cc32)N=C1N (stereo partly shown) [Compound 279] | 1000 to 5000 | 100 to 500 |  |
| CN1OC2(CC3(CCCc4ccccc43)Oc3ccc(-c4cc(F)cc(F)c4)cc32)N=C1N (stereo not shown) [Compound 402] |  | 1000 to 5000 | 10000 to 50000 |
| CN1O[C@]2(C[C@@H]([C@@H]3CCCOC3)Oc3ccc(-c4cc(F)cc(F)c4)cc32)N=C1N (racemic) [Compound 323, (±)-(2S,4S)-6-(3,5-difluorophenyl)-2′-methyl-2-((R)-tetrahydro-2H-pyran-3-yl)-2′H-spiro[chroman-4,5′-[1,2,4]oxadiazol]-3′-amine] | 1000 to 5000 | 100 to 500 |  |
| CN1OC2(CC3(CCCc4ccccc4C3)Oc3ccc(C#CC(C)(C)C)cc32)N=C1N (stereo not shown) [Compound 308] | 1000 to 5000 | 100 to 500 |  |
| COc1cc(OC)cc(-c2ccc3c(c2)[C@]2(C[C@]4(CCCOC4)O3)N=C(N)N(C)C2=O)c1 [Compound 283] | 100 to 500 | 100 to 500 |  |
| COc1ccc2c(c1)CCC[C@@]1(C2)C[C@@]2(N=C(N)N(C)O2)c2cc(-c3cccc(C#N)c3)ccc2O1 [Compound 311] | 500 to 1000 | 100 to 500 |  |
| CN1OC2(C[C@H]([C@H]3CCOC(C)(C)C3)Oc3ccc(-c4cc(F)cc(Cl)c4)cc32)N=C1N (stereo partly shown) [Compound 295] | 1000 to 5000 | 100 to 500 |  |
| CN1C(=O)C2(CC([C@H]3CCCc4ccccc43)Oc3ccc(-c4cccc(C#N)c4)cc32)N=C1N (stereo in doubt) [Compound 335, 3-(2′-amino-1′-methyl-5′-oxo-2-(1,2,3,4-tetrahydronaphthalen-1-yl)-1′,5′-dihydrospiro[chroman-4,4′-imidazole]-6-yl)benzonitrile] | 5000 to 10000 | 100 to 500 |  |
| CN1C(=O)C2(CC3(CCCOC3)Oc3ccc(-c4cc(F)cc(F)c4)cc32)N=C1N (stereo not shown) [Compound 314] | 500 to 1000 | 100 to 500 |  |
| CN1OC2(CC(C3CCOC(C)(C)C3)Oc3ccc(-c4cccc(C(F)(F)F)c4)cc32)N=C1N (stereo not shown) [Compound 297] | 1000 to 5000 | 100 to 500 |  |
| CN1C(=O)C2(CC3(CCCOC3)Oc3ccc(-c4cccc(Cl)c4)cc32)N=C1N (stereo not shown) [Compound 290] | 500 to 1000 | 100 to 500 |  |

Further lines, with some results ahead:

| IC50 [1, 3] [nM] | IC50 [2] [nM] | SMILES | IC50 [1] [nM] |
| --- | --- | --- | --- |
| 1000 to 5000 | 100 to 500 | CN1C(=O)C2(CC3(CCCOC3)Oc3ccc(-c4cccc(C(F)(F)F)c4)cc32)N=C1N (stereo not shown) [Compound 338] |  |
| 5000 to 10000 | 100 to 500 | CN1OC2(C[C@H](C34CCC(CC3)OC4)Oc3ccc(-c4cccc(C#N)c4)cc32)N=C1N (stereo partly shown) [Compound 345] |  |
| 10000 to 50000 | 500 to 1000 | CN1OC2(CC3(CCN(c4ncccn4)CC3)Oc3ccc(-c4cccc(C#N)c4)cc32)N=C1N (stereo not shown) [Compound 353] |  |
| 1000 to 5000 | 500 to 1000 | CN1OC2(CC3(CCCc4ccccc4C3)Oc3ccc(-c4ccc5cc[nH]c5c4)cc32)N=C1N (stereo not shown) [Compound 352] |  |
| 5000 to 10000 | 1000 to 5000 | CN1OC2(C[C@]3(CC4CCC3OC4)Oc3ccc(-c4cccc(C#N)c4)cc32)N=C1N (single isomer, unassigned) [Compound 403] |  |
| 10000 to 50000 | 5000 to 10000 | Cc1cc2c(cc1-c1cccc(C#N)c1)C1(CC3(CCCOC3)O2)N=C(N)N(C)O1 (stereo not shown) [Compound 432, 3-(3″-amino-2″,7-dimethyl-2″H-spiro[spiro[chroman-2,1′-(3-oxacyclohexane)]-4,5′-[1,2,4]oxadiazole]-6-yl)benzonitrile] |  |
| 5000 to 10000 | 500 to 1000 | CN1O[C@]2(C[C@@H]([C@H]3CCCOC3)Oc3ccc(-c4cc(F)cc(F)c4)cc32)N=C1N [Compound 348] |  |
